The values that follow come from US7956082B2, “Indole derivative having PGD2 receptor antagonist activity” (Shionogi & Co., Ltd, priority 2005, dated 2011).

The target of experiment [1] is T1, DP receptor (Homo sapiens, UniProt Q13258).
T1 construct: endogenous in cells; host or cells: washed platelets from peripheral blood of a healthy volunteer (whole platelets in A1, platelet membrane fraction in A2)
T1 sequence (Q13258 1-359): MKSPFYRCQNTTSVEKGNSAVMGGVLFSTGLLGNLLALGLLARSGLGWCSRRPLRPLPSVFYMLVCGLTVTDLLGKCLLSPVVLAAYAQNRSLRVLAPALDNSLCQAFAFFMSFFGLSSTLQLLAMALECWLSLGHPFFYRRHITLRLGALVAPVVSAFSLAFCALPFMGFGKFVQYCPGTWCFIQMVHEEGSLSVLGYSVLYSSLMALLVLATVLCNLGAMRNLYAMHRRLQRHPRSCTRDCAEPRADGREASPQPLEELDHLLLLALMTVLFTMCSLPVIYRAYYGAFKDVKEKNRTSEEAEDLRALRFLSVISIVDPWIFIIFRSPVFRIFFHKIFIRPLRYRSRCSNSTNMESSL
As to the kind of experiment: Receptor binding assay, [3H]-PGD2, platelet membrane. The note with it: [3H]-PGD2, human platelet membrane, on ice 2 hours. On the procedure:
2) Receptor Binding Assay A prepared WP was homogenated and a membrane fraction was collected with high-speed centrifugation. A compound of the present invention or a reference compound A(No. IC-73 in WO 2003/097598) was added to the plate and [^3H]-PGD2 was also added. A platelet membrane, a protein concentration is 2 mg/mL, was added and mixed in the plate, and placed on ice for 2 hours. The reaction solution was transferred to a low protein-adsorptive filter and washed with a wash solution eight times using a cell harvester. After the final washing, water was removed sufficiently, and micoscinti was added. DP inhibitory activity was investigated by measuring [^3H] by using Micro Beta.

Experiment [2] concerns the target T1, DP receptor. Briefly: cAMP assay with washed platelets (DP inhibitory activity in vitro). The note with it: 100 nM PGD2, cAMP by HTRF, read-out: IC50 (50% DP-inhibitory concentration in the cAMP assay). It counts as cell-based. Here is the method:
1) Preparation of Platelet and a Method of cAMP Assay
30 ml of peripheral blood was collected from a healthy volunteer using a syringe containing one ninth amount of 3.8% sodium citrate for diagnosis. After being centrifuged at 180 g for 10 minutes at room temperature, a supernatant was collected and used as Platelet Rich Plasma (PRP). The resulting PRP was washed with wash buffer and centrifuged three times (Washed Platelet: WP) and platelets were counted by a microcell counter. WP was added to a plate in amount of 1.5×10^8/assay and the plate was treated, with 3-isobutyl-1-methylxanthin (IBMX; 0.5 mM) for 5 minutes. A reaction was initiated by adding 100 nM of PGD2 5 min after an addition of a test compound. The reaction was terminated with an addition of 1N HCl after 2 minutes and the cells were destructed using 12% triton X-100. An amount of cAMP in the supernatant was assayed by Homogeneous […] (HTRF)
In general terms: Changes in cAMP serve as a functional read-out for many G protein-coupled receptors.

Another experiment concerns Brown Norway (BN) Rats. As to the kind of experiment: Test using OVA asthma model of rat. The experiment is classed as in vivo. The note with it: 10 mg/kg p.o. once a day for three days, vs control group; for inhibition rate (%) increased hyperresponsive airway: AUC of acetylcholine response curve; for inhibition rate (%) mucus-secretion: mucin in airway lavage fluid; for inhibition rate (%) infiltration of inflammatory cells: total cell number in bronchoalveolar washings. On the procedure: Brown Norway (BN) Rats were sensitized by i.p. administration of 0.1 mg/mL of ovalbumin (OVA) and 1 mg of aluminum hydroxide gel. A solution of 1% OVA was aerosolized by ultrasonic nebulizer (NE-U17) and the rats were subjected to inhalation exposure of the aerosol for 30 minutes in an exposing chamber 12, 19, 26 and 33 days after the sensitization. One hour before the 4th exposure of the antigen, compounds of the present invention were administered in a dose of 10 mg/kg p.o. once a day for three days consecutively. In a control group, 0.5% of methyl cellulose was administered in place of the compound of the present invention.
Under pentobarbital anesthesia (80 mg/kg, i.p.), acetylcholine (3.9, 7.8, 15.6, 31.3, 62.5, 125, 250 and 500 μg/kg) was injected to jugular vein of the rats successively from a lower dose at intervals of 5 minutes three days after the fourth exposure to the antigen, and immediate contractile reaction of airways (an increase of insufflation pressure) was measured by a modified method of Konnzett & Rössler. Inhibition rate of increased hyperresponsive airway against the control group was calculated based on area under curve (AUC) obtained from concentration-response curve of acetylcholine.
After the measurement of increased hyperresponsive airway was; completed, bronchoalveoli of the rats were washed with 5 mL of saline three times. Total cell number in the washings was counted by a hemacytometer under light microscope, and inhibition rates of infiltration of inflammatory cells against the control group were calculated. Further, muchin in the airway lavage fluid was measured by ELIZA method using jacalin, a muchin-binding lectin, and the inhibition rates of mucus-secretion against the control group were calculated.

Molecules are shown by their SMILES.

In turn, `CC(C)Oc1ccc(S(=O)(=O)N2CCC(c3cn(CC(=O)O)c4ccc(Cl)cc34)CC2)cc1` [Compound I-3] had a Ki at DP receptor [1] of 1.3 nM. The IC50 at DP receptor [2] worked out at 1.3 nM. Regarding `CC(C)Oc1ccc(S(=O)(=O)N2CCC(c3cn(CC(=O)O)c4ccc(F)cc34)C2)cc1` (stereo not drawn) [Compound I-9], on DP receptor [1], the Ki turned out to be 4.5 nM. Further, the IC50 on DP receptor [2] worked out at 2.3 nM. For `CC(C)Oc1ccc(S(=O)(=O)N2CCC(c3cn(CC(=O)O)c4ccc(Cl)cc34)C2)cc1` (stereo not drawn) [Compound I-10], in that order: 2.5 nM and 1 nM. `CC(C)Oc1ccc(S(=O)(=O)N2CCC(c3cn(CC(=O)O)c4cc(Cl)ccc34)C2)cc1` (stereo not drawn) [Compound I-14]: the inhibitory constant (Ki) at DP receptor [1] turned out to be 2.1 nM. For the same compound, in the experiment with Brown Norway (BN) Rats, the “inhibition rate (%) increased hyperresponsive airway” value came to 31%, the “inhibition rate (%) mucus-secretion” value came out at 55% and the “inhibition rate (%) infiltration of inflammatory cells” value (shortened to “inhibition rate (%) infiltration”) worked out at 57%. The IC50 on DP receptor [2] came out at 0.98 nM.

In turn, `CC(C)Oc1ccc(S(=O)(=O)N2CCC(c3cn(CC(=O)O)c4c(Cl)cccc34)C2)cc1` (stereo not drawn) [Compound I-19] had a Ki on DP receptor [1] of 4.2 nM. On DP receptor [2], the IC50 was 1.3 nM. The corresponding values for `CC(C)Oc1ccc(S(=O)(=O)N2CCC(c3cn(CC(=O)O)c4ccc(F)cc34)CC2)cc1` [Compound I-23] are 2.2 nM and 1.9 nM. At DP receptor [1], `CC(C)Oc1ccc(S(=O)(=O)N2CCC(c3cn(CC(=O)O)c4cc(F)ccc34)C2)cc1` (stereo not drawn) [Compound I-34] returned a Ki of 3.4 nM. Moreover, the IC50 at DP receptor [2] was 2.3 nM.

As to `CCOc1ccc(S(=O)(=O)N2CCC(c3cn(CC(=O)O)c4ccc(Cl)cc34)C2)cc1` (stereo not drawn) [Compound I-38], at DP receptor [1], the affinity corresponds to a Ki of 4.7 nM. In addition, the IC50 on DP receptor [2] stood at 2 nM. For `CC(C)Oc1ccc(S(=O)(=O)N2CCC(c3cn(CC(=O)O)c4c(Cl)cc(Cl)cc34)C2)cc1` (stereo not drawn) [Compound I-45], in that order: 19 nM and 1.5 nM.

As for `CC(C)Sc1ccc(S(=O)(=O)N2CCC(c3cn(CC(=O)O)c4ccc(Cl)cc34)C2)cc1` (stereo not drawn) [Compound I-59], the IC50 on DP receptor [2] came out at 1.1 nM.

Take `CC(C)Oc1ccc(S(=O)(=O)N2CCC(c3cn(CC(=O)O)c4cc(Br)ccc34)C2)cc1` (stereo not drawn) [Compound I-60]: at DP receptor [1], the Ki is 3.5 nM. On DP receptor [2], the IC50 is 0.73 nM. As to `CC(C)Oc1ccc(S(=O)(=O)N2CC[C@@H](c3cn(CC(=O)O)c4ccc(Cl)cc34)C2)cc1` [Compound I-65], the Ki on DP receptor [1] was 2.3 nM. In addition, in the experiment on Brown Norway (BN) Rats, the “inhibition rate (%) increased hyperresponsive airway” value turned out to be 62%, the “inhibition rate (%) mucus-secretion” value amounted to 40% and the “inhibition rate (%) infiltration” value is on record as 61%. Besides, at DP receptor [2], the IC50 was determined as 0.34 nM.

Turning to `CC(C)Oc1ccc(S(=O)(=O)N2CCC(c3cn(CC(=O)O)c4cc(-c5cccs5)ccc34)C2)cc1` (stereo not drawn) [Compound I-66], at DP receptor [2], the IC50 is 1.9 nM. On to `CC(C)Oc1ccc(S(=O)(=O)N2CCC(c3cn(CC(=O)O)c4cc(-c5ccsc5)ccc34)C2)cc1` (stereo not drawn) [Compound I-67], for which, at DP receptor [2], the IC50 turned out to be 1.4 nM.

Take `CC(C)Oc1ccc(S(=O)(=O)N2CCC(c3cn(CC(=O)O)c4cc(-c5ccc(C#N)cc5)ccc34)C2)cc1` (stereo not drawn) [Compound I-72]: on DP receptor [2], the IC50 was determined as 2.2 nM. The same measure, in the same setting: next, `CC(C)Oc1ccc(S(=O)(=O)N2CCC(c3cn(CC(=O)O)c4cc(-c5cccc(C#N)c5)ccc34)C2)cc1` (stereo not drawn) [Compound I-73]: 2 nM; `COc1ccc(-c2ccc3c(C4CCN(S(=O)(=O)c5ccc(OC(C)C)cc5)C4)cn(CC(=O)O)c3c2)cc1` (stereo not drawn) [Compound I-74]: 1.9 nM. Regarding `CC(C)Oc1ccc(S(=O)(=O)N2CCC(c3cn(CC(=O)O)c4cc(-c5ccncc5)ccc34)C2)cc1.Cl` (stereo not drawn) [Compound I-75], affinity at DP receptor [1] was put at a Ki of 0.66 nM. Also, in the experiment with Brown Norway (BN) Rats, the “inhibition rate (%) increased hyperresponsive airway” value was 58%, the “inhibition rate (%) mucus-secretion” value came to 77% and the “inhibition rate (%) infiltration” value was 71%. For the same compound, the IC50 at DP receptor [2] worked out at 1.7 nM. Regarding `CC(C)Oc1ccc(S(=O)(=O)N2CCC(c3cn(CC(=O)O)c4cc(-c5ccoc5)ccc34)C2)cc1` (stereo not drawn) [Compound I-78], the IC50 at DP receptor [2] is 1.2 nM. Consider `CC(C)Oc1ccc(S(=O)(=O)N2CC[C@@H](c3cn(CC(=O)O)c4cc(Cl)ccc34)C2)cc1` [Compound I-79], for which the affinity on DP receptor [1] corresponds to a Ki of 0.91 nM. For the same compound, the IC50 on DP receptor [2] stood at 0.19 nM. Turning to `CC(C)Oc1ccc(S(=O)(=O)N2CCC(c3cn(CC(=O)O)c4cc(-c5ccc6c(c5)OCO6)ccc34)C2)cc1` (stereo not drawn) [Compound I-80], at DP receptor [2], the IC50 was 1.4 nM. Still for that read-out and setting: next, `COc1cccc(-c2ccc3c(C4CCN(S(=O)(=O)c5ccc(OC(C)C)cc5)C4)cn(CC(=O)O)c3c2)c1` (stereo not drawn) [Compound I-81]: 0.86 nM. Take `CC(C)Oc1ccc(S(=O)(=O)N2CCC(c3cn(CC(=O)O)c4cc(N5CCOCC5)ccc34)C2)cc1.Cl` (stereo not drawn) [Compound I-82]: in the experiment with Brown Norway (BN) Rats, the “inhibition rate (%) increased hyperresponsive airway” value was 59%, the “inhibition rate (%) mucus-secretion” value was 47% and the “inhibition rate (%) infiltration” value amounted to 35%. Regarding `CC(C)Oc1ccc(S(=O)(=O)N2CCC(c3cn(CC(=O)O)c4cc(Br)ccc34)C2)cc1F` (stereo not drawn) [Compound I-86], the IC50 at DP receptor [2] was 1.3 nM. For `CC(C)Oc1ccc(S(=O)(=O)N2CCC(c3cn(CC(=O)O)c4cc(-c5nnco5)ccc34)C2)cc1` (stereo not drawn) [Compound I-88], at DP receptor [1], the inhibition constant Ki was determined as 2.5 nM. Further, the IC50 at DP receptor [2] stood at 1.2 nM. At DP receptor [1], `CC(C)Oc1ccc(S(=O)(=O)N2CCC(c3cn(CC(=O)O)c4cc(-c5nccs5)ccc34)C2)cc1` (stereo not drawn) [Compound I-93] gave a Ki of 0.24 nM. The IC50 on DP receptor [2] is 0.5 nM. The corresponding values for `CC(C)Oc1ccc(S(=O)(=O)N2CC[C@@H](c3cn(CC(=O)O)c4cc(-c5nccs5)ccc34)C2)cc1` [Compound I-96] are 0.21 nM and 0.23 nM. Turning to `CC(C)Oc1ccc(S(=O)(=O)N2CCC(c3cn(CC(=O)O)c4cc(C#N)ccc34)CC2)cc1` [Compound I-98], the IC50 at DP receptor [2] was 0.97 nM. Consider `CC(C)Oc1ccc(S(=O)(=O)N2CCC(c3cn(CC(=O)O)c4cc(-c5ccccn5)ccc34)CC2)cc1` [Compound I-99], for which the IC50 on DP receptor [2] worked out at 1.9 nM. The same measure, in the same setting: next, `CC(C)Oc1ccc(S(=O)(=O)N2CCC(c3cn(CC(=O)O)c4cc(-c5nccs5)ccc34)CC2)cc1` [Compound I-100]: 1.9 nM. `CC(C)Oc1ccc(S(=O)(=O)N2CC[C@@H](c3cn(CC(=O)O)c4cc(-c5ccco5)ccc34)C2)cc1` [Compound I-101] yielded a Ki on DP receptor [1] of 0.21 nM. Besides, the IC50 on DP receptor [2] amounted to 0.27 nM. Take `CC(C)Oc1ccc(S(=O)(=O)N2CCC(c3cn(CC(=O)O)c4cc(-c5nncs5)ccc34)CC2)cc1` [Compound I-102]: on DP receptor [2], the IC50 stood at 0.56 nM. Compound `CC(C)Oc1ccc(S(=O)(=O)N2CCC(c3cn(CC(=O)O)c4cc(-c5ncco5)ccc34)CC2)cc1` [Compound I-104] yielded an inhibition constant Ki at DP receptor [1] of 1.3 nM. Moreover, the IC50 on DP receptor [2] is 1.2 nM. Consider `CC(C)Oc1ccc(S(=O)(=O)N2CCC(c3cn(CC(=O)O)c4cc(N5CCCC5=O)ccc34)C2)cc1` (stereo not drawn) [Compound I-107], for which, at DP receptor [2], the IC50 was determined as 2.3 nM.

A word on the Ki: it is a dissociation constant, usually derived from enzyme kinetics or from competition with a known ligand. A lower Ki goes with higher affinity.
